From PubChem BioAssay AID248 (DTP/NCI, 2004)
Where “and” joins values, the source holds several entries; their conditions need not be identical. Equal entries are not always repeated. Toxic doses and inconclusive results are not listed. Rule as the data show it: active = T/C of 150% or more; inactive = T/C below 125%.

System: L1210 leukemia ip in BDF1 mice, survival T/C
Experiment: NCI In Vivo Anticancer Drug Screen. Data for tumor model L1210 Leukemia (intraperitoneal) in B6D2F1 (BDF1) mice
Settings: endpoint: mean survival time, higher = longer survival
In short: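 Value reflects the ratio of survival in compound-treated mice to survival in vehicle-treated controls, with both groups carrying the same transplanted tumor.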

[1] = dose: 100.0 mg/kg/injection, schedule: Q04DX003 (ip), vehicle: saline with Tween-80
[2] = dose: 200.0 mg/kg/injection, schedule: Q04DX003 (ip), vehicle: saline with Tween-80
[3] = dose: 400.0 mg/kg/injection, schedule: Q04DX003 (ip), vehicle: saline with Tween-80
[4] = dose: 100.0 mg/kg/injection, schedule: Q04DX003 (ip), vehicle: Klucel (hydroxypropylcellulose) (HPC)
[5] = dose: 200.0 mg/kg/injection, schedule: Q04DX003 (ip), vehicle: Klucel (hydroxypropylcellulose) (HPC)
[6] = dose: 400.0 mg/kg/injection, schedule: Q04DX003 (ip), vehicle: Klucel (hydroxypropylcellulose) (HPC)
[7] = dose: 100.0 mg/kg/injection, schedule: Q01DX001 (ip), vehicle: saline
[8] = dose: 200.0 mg/kg/injection, schedule: Q01DX001 (ip), vehicle: saline
[9] = dose: 400.0 mg/kg/injection, schedule: Q01DX001 (ip), vehicle: saline
[10] = dose: 100.0 mg/kg/injection, schedule: Q01DX009 (ip), vehicle: Klucel (hydroxypropylcellulose) (HPC)
[11] = dose: 200.0 mg/kg/injection, schedule: Q01DX009 (ip), vehicle: Klucel (hydroxypropylcellulose) (HPC)
[12] = dose: 400.0 mg/kg/injection, schedule: Q01DX009 (ip), vehicle: Klucel (hydroxypropylcellulose) (HPC)
[13] = dose: 100.0 mg/kg/injection, schedule: Q04DX002 (ip), vehicle: Klucel (hydroxypropylcellulose) (HPC)

Measured: T/C

COC(=O)c1n[nH]c(C(C)C)c1N=NN(C)C
inactive: dose: 50.0 mg/kg/injection, schedule: Q01DX009 (ip), vehicle: saline with Tween-80 116 % of control | [1] 116 % of control | dose: 132.0 mg/kg/injection, schedule: Q04DX003 (ip), vehicle: saline with Tween-80 111 % of control | [2] 119 % of control | dose: 300.0 mg/kg/injection, schedule: Q04DX003 (ip), vehicle: saline with Tween-80 111 % of control | [3] 96 % of control

Cc1cc(C)c(S(=O)(=O)C(=O)C(=O)NN)c(C)c1
inactive: dose: 100.0 mg/kg/injection, schedule: Q01DX001 (ip), vehicle: Klucel (hydroxypropylcellulose) (HPC) 104 % of control | [4] 115 % of control | dose: 200.0 mg/kg/injection, schedule: Q01DX001 (ip), vehicle: Klucel (hydroxypropylcellulose) (HPC) 106 % of control | [5] 109 % of control | dose: 400.0 mg/kg/injection, schedule: Q01DX001 (ip), vehicle: Klucel (hydroxypropylcellulose) (HPC) 106 % of control | [6] 104 % of control

CC(=O)OCCN1CCN(CCOC(C)=O)CC1
inactive: [7] 96 % of control | [8] 102 % of control | [9] 94 % of control

CC(C)C/C=N/NC(=O)Cc1ccccc1
inactive: dose: 100.0 mg/kg/injection, schedule: Q01DX001 (ip), vehicle: other 101 % of control | dose: 200.0 mg/kg/injection, schedule: Q01DX001 (ip), vehicle: other 94 % of control | dose: 400.0 mg/kg/injection, schedule: Q01DX001 (ip), vehicle: other 101 % of control

O=C(COc1ccc(Cl)cc1)Nc1ccc(Cl)cc1C(=O)c1ccccc1
inactive: dose: 50.0 mg/kg/injection, schedule: Q01DX009 (ip), vehicle: other 106 % of control | dose: 100.0 mg/kg/injection, schedule: Q01DX009 (ip), vehicle: other 102 % of control | dose: 200.0 mg/kg/injection, schedule: Q01DX009 (ip), vehicle: other 96 % of control and 87 % of control | dose: 400.0 mg/kg/injection, schedule: Q01DX009 (ip), vehicle: other 89 % of control

CCCCCCCC(=O)Nc1c(C)cccc1C
inactive: [1] 97 % of control | [2] 93 % of control | [3] 93 % of control

c1ccc(CCCCc2ccc(CCCCc3ccccc3)cc2)cc1
inactive: [7] 101 % of control | [8] 93 % of control | [9] 93 % of control

Cc1ccc(/C=C/c2ccccc2)cc1
inactive: dose: 75.0 mg/kg/injection, schedule: Q01DX009 (ip), vehicle: Klucel (hydroxypropylcellulose) (HPC) 98 % of control | dose: 150.0 mg/kg/injection, schedule: Q01DX009 (ip), vehicle: Klucel (hydroxypropylcellulose) (HPC) 104 % of control | dose: 300.0 mg/kg/injection, schedule: Q01DX009 (ip), vehicle: Klucel (hydroxypropylcellulose) (HPC) 103 % of control

Cc1ccc(C(=O)C2CN(C)CCC2(O)c2ccc(C)cc2)cc1 (centres undefined)
inactive: [1] 96 % of control | [2] 103 % of control | [3] 96 % of control

COC(=O)C1C2CC/C=C\CCC21 (centres undefined)
inactive: [10] 91 % of control | [11] 87 % of control | [12] 91 % of control

O=C(Cl)COc1cc(Cl)c(Cl)cc1Cl
inactive: dose: 100.0 mg/kg/injection, schedule: Q04DX002 (ip), vehicle: gum acacia 106 % of control | dose: 200.0 mg/kg/injection, schedule: Q04DX002 (ip), vehicle: gum acacia 110 % of control

CC(C)C1SC(=S)NC1=O (centres undefined)
inactive: [7] 88 % of control | [8] 95 % of control

O=[N+]([O-])c1ccc(OCCCBr)c(Cl)c1
inactive: dose: 100.0 mg/kg/injection, schedule: Q01DX009 (ip), vehicle: saline 103 % of control | dose: 200.0 mg/kg/injection, schedule: Q01DX009 (ip), vehicle: saline 108 % of control | dose: 400.0 mg/kg/injection, schedule: Q01DX009 (ip), vehicle: saline 120 % of control

Cc1cccnc1NC(=S)Nc1cccc(C(F)(F)F)c1
inactive: [13] 95 % of control | dose: 200.0 mg/kg/injection, schedule: Q04DX002 (ip), vehicle: Klucel (hydroxypropylcellulose) (HPC) 95 % of control | dose: 400.0 mg/kg/injection, schedule: Q04DX002 (ip), vehicle: Klucel (hydroxypropylcellulose) (HPC) 92 % of control

O=C1C=CC2C3C=CC(CC3)C12 (centres undefined)
inactive: dose: 50.0 mg/kg/injection, schedule: Q04DX002 (ip), vehicle: Klucel (hydroxypropylcellulose) (HPC) 89 % of control | [13] 93 % of control

O=Nc1ccc(C=C2C(=O)C=CC2=O)cc1
inactive: dose: 75.0 mg/kg/injection, schedule: Q01DX001 (ip), vehicle: saline 100 % of control | dose: 150.0 mg/kg/injection, schedule: Q01DX001 (ip), vehicle: saline 94 % of control | dose: 300.0 mg/kg/injection, schedule: Q01DX001 (ip), vehicle: saline 101 % of control

COc1cc(C)ccc1C1=CCCC1
inactive: dose: 37.5 mg/kg/injection, schedule: Q01DX009 (ip), vehicle: saline 116 % of control | dose: 75.0 mg/kg/injection, schedule: Q01DX001 (ip), vehicle: acetone 102 % of control | dose: 75.0 mg/kg/injection, schedule: Q01DX009 (ip), vehicle: saline 111 % of control | dose: 150.0 mg/kg/injection, schedule: Q01DX001 (ip), vehicle: acetone 91 % of control | dose: 150.0 mg/kg/injection, schedule: Q01DX009 (ip), vehicle: saline 106 % of control | dose: 225.0 mg/kg/injection, schedule: Q01DX009 (ip), vehicle: acetone 86 % of control | dose: 300.0 mg/kg/injection, schedule: Q01DX001 (ip), vehicle: acetone 89 % of control

CN1CCC(C=C2c3ccccc3CCc3ccccc32)C1 (centres undefined)
inactive: dose: 3.12 mg/kg/injection, schedule: Q01DX009 (ip), vehicle: saline 100 % of control | dose: 6.25 mg/kg/injection, schedule: Q01DX009 (ip), vehicle: saline 92 % of control | dose: 12.5 mg/kg/injection, schedule: Q01DX009 (ip), vehicle: saline 100 % of control | dose: 25.0 mg/kg/injection, schedule: Q01DX009 (ip), vehicle: saline 98 % of control

O=C(Nc1ccc(Cl)c(Cl)c1)Oc1ccc(C2CCCCC2)cc1
inactive: [10] 95 % of control | [4] 111 % of control | [11] 95 % of control | [5] 109 % of control | [12] 97 % of control | [6] 101 % of control

CSc1n[nH]c(Cl)n1
inactive: dose: 25.0 mg/kg/injection, schedule: Q04DX002 (ip), vehicle: saline with Tween-80 98 % of control and 103 % of control | dose: 50.0 mg/kg/injection, schedule: Q04DX002 (ip), vehicle: saline with Tween-80 102 % of control and 106 % of control | dose: 100.0 mg/kg/injection, schedule: Q04DX002 (ip), vehicle: saline with Tween-80 103 % of control and 107 % of control and 114 % of control | dose: 200.0 mg/kg/injection, schedule: Q04DX002 (ip), vehicle: saline with Tween-80 104 % of control and 113 % of control and 90 % of control | dose: 400.0 mg/kg/injection, schedule: Q04DX002 (ip), vehicle: saline with Tween-80 93 % of control
